Non-standard residues stand in square brackets, D forms with d. Residues, ends and D or L forms follow the SMILES beside them. No end group written: not given here. βAla = NCCC(=O)O
Tests used:
[1] = test system: B. anthracis Sterne spores; design: species or system A/J mice; conditions: mouse, in vivo
[2] = test system: Pseudomonas exotoxin A (PEx); test: Lethal action of Pseudomonas exotoxin A in mice; format: in vivo, C57/BL6 mice
Procedure: A similar set of experiments was carried out with an unrelated toxin, Pseudomonas exotoxin A. Consistent with the earlier data (Chiron, M. F., et al. 1997), Pseudomonas exotoxin A (PEx) was resistant to PC cleavage at pH 7.5 but following unfolding at pH 5.5 PEx (66 kDa) was readily processed by furin, PC4 and PC5/6 to produce the 28 kDa N-terminal fragment and the toxic 37 kDa Cterminal fragment (FIG. 3A). C57/BL6 mice (5 mice/group) received one intramuscular injection of PEx (500 ng/animal; 2xLD50; Fogle, M. R., et al. 2002) and one injection of the […] (SEQ ID NO:212) peptide (12.5 mg/kg i.p.) either 24 h prior to toxin injection or simultaneously with toxin. Another group of mice, after receiving one injection of the peptide 24 h prior to toxin injection, continued to receive daily injections of the peptide for the remainder of the experiment.
C57/BL6 mice (5 mice/group) received one intramuscular injection of PEx (500 ng/animal; 2xLD50; Fogle, M. R., et al. 2002). Mice received one injection of the […] (SEQ ID NO:212) peptide (12.5 mg/kg i.p.) either 24 h prior to toxin injection or simultaneously with toxin. Additional group of mice after receiving one injection of the peptide 24 h prior to toxin injection continued to receive daily injections of the peptide for the remainder of the experiment (FIG. 3B).

Compound | infected mice protected from disease [1] [%] | protection from LF-induced cytotoxicity (RAW 264.7 cells) | survival ([2]; C57/BL6 mice, PEx 500 ng/animal (2xLD50), peptide 12.5 mg/kg i.p. 24 h prior to toxin then daily injections) [%] | protection of mice from the toxic effect of PEx ([2]; peptide 12.5 mg/kg i.p. (FIG. 3)) | protection of A/J mice from anthrax [1]
C[C@H](NC(=O)[C@H](CCCNC(=N)N)NC(=O)[C@@H]1CCCN1C(=O)[C@@H](N)[C@@H](C)O)C(=O)N[C@@H](CCCNC(=N)N)C(=O)N[C@@H](CCCNC(=N)N)C(=O)N[C@@H](CCCNC(=N)N)C(=O)N[C@@H](CCCCN)C(=O)N[C@@H](CCCCN)C(=O)N[C@@H](CCCNC(=N)N)C(=O)N[C@H](C(N)=O)[C@@H](C)O (H-TPRARRRKKRT-NH2) | 40 | protected cells from LF-induced cytotoxicity | 60 | protects mice from the toxic effect of Pseudomonas PEx | 
β-Ala-TPRARRRKKRT-amide ([βAla]TPRARRRKKRT-NH2; N-terminus assumed; SMILES C[C@H](NC(=O)[C@H](CCCNC(=N)N)NC(=O)[C@@H]1CCCN1C(=O)[C@@H](NC(=O)CCN)[C@@H](C)O)C(=O)N[C@@H](CCCNC(=N)N)C(=O)N[C@@H](CCCNC(=N)N)C(=O)N[C@@H](CCCNC(=N)N)C(=O)N[C@@H](CCCCN)C(=O)N[C@@H](CCCCN)C(=O)N[C@@H](CCCNC(=N)N)C(=O)N[C@H](C(N)=O)[C@@H](C)O) |  |  |  |  | protect A/J mice from anthrax
O=C(O)c1cn(C2CC2)c2cc(N3CCNCC3)c(F)cc2c1=O [Cipro, reference compound] | 40 |  |  |  | protect A/J mice from anthrax

Reference: patent US8053553B2, “Targeting host proteinases as a therapeutic strategy against viral and bacterial pathogens” (Socpra Sciences Sante Et Humaines, priority 2007, dated 2011)
